Measured values as given in patent US7033829B2, “Method to inhibit cell growth using oligonucleotides” (Trustees of Boston University, priority 2000, dated 2006).
{P} = phosphate

Assays:
[1] = tested on: Cloudman S91 mouse melanoma cells; assay: Melanin content of Cloudman S91 melanoma cells; type: cell-based; conditions: for increase in melanin content: variations of the 9-mer, cells not given; for melanogenic activity: with 5′ phosphate, FIG. 18
Experimental: (§1) The induction of melanogenesis in Cloudman S91 mouse melanoma cells by a five-nucleotide oligomer CATAC (SEQ ID NO: 6) and a nine-nucleotide oligomer, GAGTATGAG (SEQ ID NO: 1) was examined. Duplicates of Cloudman S91 murine melanoma cells were incubated with either 100 μM oligo or an equal volume of diluent (H2O) for 5 days. The cells were then collected, counted, and an equal number of cells were pelleted for melanin analysis. […] Variations of this oligonucleotide were evaluated: a scrambled 9-mer (TAGGAGGAT; SEQ ID NO: 2) and two truncated versions, a 7-mer (AGTATGA; SEQ ID NO: 3) and second 5-mer (GTATG; SEQ ID NO: 4). […] The truncated versions (SEQ ID NOs: 3 and 4) were also active, inducing 640% and 670% increases, respectively.
Cultures of Cloudman S91 murine melanoma cells were treated for 5 days with SEQ ID NO: 1, SEQ ID NO: 6, pTpT as a positive control, or an equal volume of diluent as a negative control. […] SEQ ID NO: 6 produced a slight increase in melanin, to 165+/−77% of control levels. SEQ ID NO: 1 stimulated melanin content to an average of 600+/−260% of control levels.
pTpT, shown previously to stimulate pigmentation in these cells, was used as a reference treatment, and diluent alone was used as a negative control. After five days of treatment with the oligonucleotides, the cells were collected, counted, and an equal number of cells were pelleted for melanin analysis. […] SEQ ID NO: 5, representing the telomere over-hang sequence, also at 10 μM, increased the melanin level to 10 times that of control cells.
S91 cells were cultured in the presence of diluent alone, pTpT p9mer (SEQ ID NO: 1), p7mer (AGTATGA; SEQ ID NO: 7) or p5mer #2 (SEQ ID NO: 4). […] Both SEQ ID NOS: 4 and 7 stimulated a 7–8 fold increase in melanin.
S91 cells were cultured for 5 days in the presence of the thymidine dinucleotides or SEQ ID NO: 1 with or without a 5′ phosphate or diluent alone as a negative control.
Cultures of S91 mouse melanoma cells (100,000 cells/38 cm^2) were treated with 100 μM pTpT or phosphorothioate pTpT (pTspT) (FIG. 22) or 40 μM 11mer-1 or the phosphorothioate 11mer-1 (11mer-1-S) (FIG. 23) for 6 days and were then collected, counted and assayed for melanin content.
Duplicate cultures of S91 cells (100,000 cells/39 cm^2) were either sham-irradiated or irradiated with 5 mJ/cm^2 solar-simulated light from a 1 kW xenon arc solar-simulator (XMN 1000-21, Optical Radiation, Azuza, Calif.) metered at […] using a research radiometer (model IL1700A, International Light, Newburyport, Mass.). Two sham-irradiated plates were then supplemented with 100 μM pTspT and two irradiated cultures were similarly treated with pTspT. After one week, cells were collected, counted and analyzed for melanin content by dissolving the cell pellets in 1 N NaOH and measuring the optical density at […]. […] However, this response was blocked by the addition of pTspT (FIG. 24). In addition, the constitutive pigmentation of these cells was reduced by the pTspT in the sham-irradiated cultures, similar to the data presented in FIGS. 22 and 23.

[2] = tested on: Human squamous carcinoma cell line SCC12F cells; assay: Cell growth / cell yield of SCC12F cells (Coulter counter); type: cell-based; conditions: after 2 days; FIG. 14
Experimental: Human squamous carcinoma cell line SCC12F cells were maintained in primary keratinocyte medium (300 ml DME, 100 ml F-12 nutrient supplement, 50 ml 10× adenine, 50 ml fetal bovine serum, 5 ml penicillin/streptomycin stock, and 0.5 ml of 10 μg/ml epidermal growth factor and hydrocortisone to final concentration of 1.4 μg/ml) and dosed with either water (diluent), 100 μM pTpT (T2, Midland Certified Reagent Company, Midland, Tex.) or 100 μM pdApdA (A2). Cells were harvested before dosing (day 0), and 1, 3, 4, and 5 days after dosage, and were counted by Coulter™ counter. After harvesting, the cells were processed for total RNA isolation and were analyzed by Northern blot. Addition of a control deoxyadenine dinucleotide (pdApdA), a compound very similar to pTpT but not readily dimerized by UV irradiation, and therefore rarely excised during the course of UV-induced DNA repair, has no effect.
In a second experiment, SCC12F cells were cultured as described above. Two or three days after seeding, the preconfluent cultures were given fresh medium supplemented with either 100 μM T2 or diluent as a control. Cells were collected daily by trypsinization and counted by Coulter™ counter. The cell yield in cultures treated with T2 was reduced by […] compared to that of paired control cultures after five days (FIG. 2). This corresponds to 2.3 population doublings in this time for control cells, compared with 1 doubling for T2-treated cells.
(§2) pTpT was previously found to inhibit cell cycle progression, at least in part through activation of p53 and subsequent upregulation of the cyclin dependent kinase inhibitor p21. Cultures of the human keratinocyte line SCC12F were treated with pTpT, SEQ ID NO: 1, SEQ ID NO: 6 or diluent alone as a negative control, collected and counted 48 hours later and processed for northern blot analysis of p21 mRNA expression. […] Thus, the sequences of the present invention activate p53 and inhibit cell proliferation similar to the effect of pTpT.
Exposure of keratinocytes to UVB irradiation affects the expression of genes involved in cell cycle arrest, DNA repair and cytokine production. Single-stranded oligonucleotides sharing sequence homology with the telomere 3′ overhang, when introduced into cells, mimic these UV effects. To identify other genes that may be similarly modulated, cells of keratinocyte origin (SCC12F; a human epidermal squamous cell carcinoma line provided by Dr. James Rheinwald of Harvard University) were exposed to solar simulated irradiation (SSR) (20 mJ/cm^2, measured at 285±5 nm), to an 11-base oligonucleotide (pGTTAGGGTTAG; SEQ ID NO:5) homologous to the telomere overhang (T-oligo), or to a complementary sequence as control [pCTAACCCTAAC; (SEQ ID NO:9) control oligonucleotide]. […] These are mitochondrial-transcribed genes whose encoded proteins participate in cellular respiration.

[3] = tested on: p21/Waf 1/Cip 1 gene; assay: p21 mRNA Northern blot in SCC12F cells; type: cell-based, human; conditions: 48 hours
Experimental: as §1, §2

[4] = tested on: S91 cells; assay: Cellular uptake of FAM-labeled oligonucleotides in S91 cells; type: in vitro ADME, mouse; conditions: 4 hours
Experimental: Fluorescein phosphoramidite (FAM) labeled oligonucleotides were added to cultures of S91 cells for 4 hours and the cells were then prepared for confocal microscopy. Nuclei, identified by staining with propidium iodide, appeared red and FAM-labeled oligonucleotides appeared green. Co-localization of red and green signals was assigned a yellow color by the computer. […] There was no change in the profile of oligonucleotide uptake after 6 and 24 hours.

[5] = tested on: Jurkat cells; assay: FACS cell cycle / apoptosis analysis of Jurkat cells; type: cell-based, human
Experimental: Oligonucleotides homologous to the telomere overhang repeat sequence (TTAGGG; SEQ ID NO:11), sequence (11mer-1: pGTTAGGGTTAG; SEQ ID NO: 5), complementary to this sequence (11mer-2: pCTAACCCTAAC; SEQ ID NO: 9) and unrelated to the telomere sequence (11mer-3: pGATCGATCGAT; SEQ ID NO: 10) were added to cultures of Jurkat cells, a line of human T cells, one of the cell types reported to undergo apoptosis in response to telomere disruption. Within 48 hours, 50% of the cells treated with 40 μM of SEQ ID NO: 5 had accumulated in the S phase, compared to 25–30% for control cells (p<0.0003, non-paired t-test; see FIGS. 19A–19D), and by 72 hours, 13% of these cells were apoptotic as determined by a sub-G0/G1 DNA content, compared to 2–3% of controls (p<0.007, non-paired t-test; see FIGS. 19E–19H). At 96 hours, 20±3% of the 11mer-1 treated cells were apoptotic compared with 3–5% of controls (p<0.0001, non-paired t-test). To exclude preferential uptake of the 11mer-1 as an explanation of its singular effects, Jurkat cells were treated with oligonucleotides labeled on the 3′ end with fluorescein phosphoramidite, then subjected to confocal microscopy and FACS analysis. The fluorescence intensity of the cells was the same after all treatments at 4 hours and 24 hours.
Three DNA oligonucleotides were designed initially: one homologous to the telomere overhang (11mer-1: pGTTAGGGTTAG; SEQ ID NO:5), one complementary to this sequence (11mer-2: pCTAACCCTAAC; SEQ ID NO:9) and one unrelated (11mer-3: pGATCGATCGAT; SEQ ID NO:10). For later experiments, additional 11 base oligonucleotides were designed: one a simple permutation of 11mer-1 (pGGGTTAGGGTT; SEQ ID NO:13), one with the same number of G residues but roughly 50% rather than 100% homology to the overhang (pTAGATGTGGTG; SEQ ID NO:14), and one with roughly 50% overhang homology but also containing cytosine bases (pCGGGCTTATTG; SEQ ID NO:15) (Midland Certified Reagent Company, Midland, Tex.). Cell Sources and Culture Human neonatal fibroblasts were established and cultured as previously described (Eller, M. S., et al., 1997, Proc Natl Acad Sci USA 94: 12627–12632). Fibroblasts from a Nijmegen breakage syndrome (NBS) patient (#GM07166) and an age-matched control (GM03399) were purchased from the NIGMS Human Cell Repository, Coriell Institute for Medical Research, Camden, N.J.) and cultured in DMEM/15% FBS. Saos-2 cells were purchased from the American Type Culture Collection (ATCC; Manassas, Va.). SCC12F cells were the kind gift of Dr. James Rheinwald, Harvard University. Cell Cycle Analysis The established line of human T lymphocytes, termed Jurkat cells (180,000 cells/ml) were plated in RPMI medium 1640 supplemented with 3% FBS (both from GIBCO/BRL, Gaithersburg, Md.). […] Cells were collected up to 96 hours after treatment, stained with propidium iodide and analyzed by FACS using a Becton-Dickinson FacsScan and CellQuest software. Caspase Activity
Oligonucleotides homologous to the 3′ overhang sequence (11mer-1: pGTTAGGGTTAG; SEQ ID NO:5), complementary to this sequence (11mer-2: pCTAACCCTAAC; SEQ ID NO:9) and unrelated to the telomere sequence (11mer-3: pGATCGATCGAT; SEQ ID NO:10) were synthesized. The three 11mer oligonucleotides were added to cultures of Jurkat cells, an established line of human T lymphocytes, a cell type reported to undergo apoptosis in response to telomere disruption [Karlseder, J., et al, (1999) Science 283, 1321–1325] and DNA damaging ionizing radiation (IR) [Vigorito, E., et al, (1999), Hematol Cell Ther 41, 153–161]. Duplicate cultures of Jurkat cells were treated with a final concentration of 40 μM 11mer-1, -2 or -3, oligonucleotides, or an equal volume of diluent (water) as a control. Cells were collected up to 96 hours after treatment, stained with propidium iodideandanalyzed by FACS. See also Example 13 and FIGS. 19A–19H.
To further confirm the specificity of these responses to the telomere overhang sequence, three variations were tested. […]

## AGTATGA (DNA, phosphodiester; further chemistry not fully specified) [SEQ ID NO: 3]
[1]
  increase in melanin content: 640%

## CATAC (DNA, phosphodiester; further chemistry not given here) [SEQ ID NO: 6]
[2]
  reduction of cell number: 25%
[1]; 100 μM, 5 days, three experiments
  pigment content increase, of control levels: 61%±60%
[1]; 5 days, FIG. 12
  melanin content, of control cells: 165+/−77%
[3]
  increase in p21 mRNA level: 10–20%

## CCCTAA (DNA, backbone not given here) [SEQ ID NO: 12]
[1]
  melanogenic activity: less active

## GAGTATGAG (DNA, phosphodiester; further chemistry not fully specified) [SEQ ID NO: 1 without 5′ phosphorylation]
[4]
  cellular uptake and localization (confocal microscopy, FACS): only moderate uptake

## GTATG (DNA, phosphodiester; further chemistry not fully specified) [SEQ ID NO: 4]
[1]
  increase in melanin content: 670%

## TAGGAGGAT (DNA, phosphodiester; further chemistry not fully specified) [SEQ ID NO: 2]
[1]
  increase in melanin content: 800%

## TTAGGG (Synthetic DNA Fragment) [SEQ ID NO: 11]
[1]
  melanogenic activity: highly melanogenic

## pCGGGCTTATTG (DNA, 5' {P}, backbone not given here) [SEQ ID NO:15, reference compound]
[5]; 10 μM
  apoptosis and S-phase arrest: failed to induce apoptosis and only induced a moderate S-phase arrest
[5]; 10 μM, 72 hours
  apoptotic cells by FACS analysis: 2%
[5]; 10 μM, 96 hours
  apoptotic cells by FACS analysis: 2–4%

## pGCATGCATGCATTACGTACG (DNA, 5' {P}, backbone not given here) [SEQ ID NO: 8]
[1]; FIG. 16
  pigmentation relative to control cells: twice the level of control cells
[4]
  cellular uptake and localization (confocal microscopy, FACS): pattern of fluorescence very similar to that seen with phosphorylated SEQ ID NO: 1

## pGGGTTAGGGTT [SEQ ID NO:13]
[5]; 10 μM, 72 hours
  apoptotic cells by FACS analysis: 13%
[5]; 10 μM, 96 hours
  apoptotic cells by FACS analysis: 28%
[5]; separate paired cultures
  activity of the two complete telomere overhang homologs: equal in activity

## pTAGATGTGGTG (DNA, 5' {P}, backbone not given here) [SEQ ID NO:14]
[5]; 10 μM, 72 hours
  apoptotic cells by FACS analysis: 10%
[5]; 10 μM, 96 hours
  apoptotic cells by FACS analysis: 16%

## pTspT
[1]; 100 μM dinucleotides or 40 μM 11mers, 6 days
  melanogenesis: did not
[1]; 100 μM pTspT or 40 μM 11mer-1-S, 6 days or one week
  constitutive pigmentation: reduced the constitutive pigmentation
[1]; 100 μM, 5 mJ/cm^2 solar-simulated light, one week
  UV-induced doubling of melanin content: blocked
